Measurements as given in patent publication US5591741A, “Fungicidal spiroheterocyclic derivatives” (American Cyanamid Company, priority 1993, dated 1997).

Tests used:
Alternaria solani = test: Activity against tomato early blight (AS); format: in vivo; conditions: Table VI; tomato seedlings, contact prophylactic foliar spray, 4 days
Procedure: b) Activity against tomato early blight (Alternaria solani; AS) This test measures the contact prophylactic activity of test compounds applied as a foliar spray. Tomato seedlings (cv Outdoor Girl) are grown to the stage at which the second true leaf is expanded. The plants are treated using an automated sprayline as described under (a). Test compounds are applied as solutions or suspensions in a mixture of acetone and water (50:50 v/v) containing 0.04% surfactant ("TWEEN 20"--Trade Mark). After drying the plants are kept for 24 hours in a glasshouse at 20° C. and 40% R.H., followed by inoculation of the leaf upper surfaces with a suspension of A. solani conidia containing 10^4 spores/ml. For 4 days after inoculation plants are kept moist in a humidity compartment at 21° C. Disease is assessed 4 days after inoculation, based on the percentage of leaf surface area covered by lesions when compared with control plants. The extent of disease control in all the above tests is expressed as a rating compared with either an untreated control or a diluent-sprayed-control, according to the criteria: […]

Pyricularia oryzae = format: in vivo; conditions: rice seedlings, direct therapeutic foliar spray, 600 ppm, 4-5 days
Leptosphaeria nodorum = test: Activity against wheat leafspot (LN); format: in vivo; conditions: direct therapeutic foliar spray, 600 ppm, 6-8 days
Procedure: (d) Activity against wheat leafspot (Leptosphaeria nodorum; LN.) The test is a direct therapeutic foliar spray. Leaves of wheat plants (cv Norman), at the single leaf stage, are inoculated by spraying with an aqueous suspension containing 1.5×10^6 conidia/ml. The inoculated plants are kept for 24 hours in a high humidity compartment prior to treatment. The plants are sprayed with a solution of the test compound at a dosage of 600 ppm using an automated sprayline as described under (a). After drying, the plants are kept for 6-8 days at 22° C. and moderate humidity (70%). Assessment is based on the density of lesions per leaf compared with that on leaves of control plants. The extent of disease control in all the above tests is expressed as a rating compared with either an untreated control or a diluent-sprayed-control, according to the criteria: […]

[1] = test system: Pseudocercosporella herpotrichoides; test: Activity against wheat eyespot in-vitro (PHI); format: cell-based; conditions: 10 ppm, 10 days, 20° C., mycelial growth
Procedure: (h) Activity against wheat eyespot in-vitro (Pseudocercosporella herpotrichoides; pHI) This test measures the in vitro activity of compounds against the fungus causing wheat eyespot. The test compound is dissolved or suspended in acetone and is added into 4 ml aliquots of half strength Potato Dextrose Broth (PDB) dispended in 25-compartment petri dishes to give a final concentration of 10ppm. The fungal inoculum consists of mycelial fragments of P. herpotrichoides grown in half strength PDB in shaken flasks and added to the broth to provide 5×10^4 fragments/ml broth. Petri dishes are incubated at 20° C. for 10 days until the assessment of mycelial growth. The extent of disease control in all the above tests is expressed as a rating compared with either an untreated control or a diluent-sprayed-control, according to the criteria: […]

[2] = test system: Erysiphe graminis f.sp. hordei; test: Activity against barley powdery mildew, direct therapeutic (EGT); format: in vivo; conditions: direct therapeutic foliar spray, 600 ppm, up to 7 days
Procedure: (e) Activity against barley powdery mildew (Erysiphe graminis f.sp. hordei; EGT) The test is a direct therapeutic foliar spray. Leaves of barley seedlings, (cv. Golden Promise) at the single leaf stage are inoculated by dusting with mildew conidia one day prior to treatment with the test compound. The inoculated plants are kept overnight at glasshouse ambient temperature (18° C.) and humidity (40%) prior to treatment. The plants are sprayed with the test compound at a dosage of 600 ppm using an automated sprayline as described under (a). After drying, plants are returned to a compartment at 18° C. and 40% humidity for up to 7 days. Assessment is based on the percentage of leaf area covered by sporulation compared with that on leaves of control plants. The extent of disease control in all the above tests is expressed as a rating compared with either an untreated control or a diluent-sprayed-control, according to the criteria: […]

Venturia inaequalis = test: Activity against apple scab in-vitro (VII); format: cell-based; conditions: 10 ppm, 10 days, 20° C., mycelial growth
Procedure: (j) Activity against apple scab in-vitro (Venturia inaequalis: VII) This test measures the in-vitro activity of compounds against V. inaequalis that causes apple scab. The test compound in acetone is added into 4 ml aliquots of half strength Potato Dextrose Broth dispensed in 25-compartment petri dishes to give final concentrations of 10 ppm. The fungal inoculum consists of mycelial fragments and spores of V. inaequalis grown on malt agar and added to the broth to provide 5×10^4 propagules/ml broth. Petri dishes are incubated at 20° C. for 10 days until the assessment of mycelial growth. The extent of disease control in all the above tests is expressed as a rating compared with either an untreated control or a diluent-sprayed-control, according to the criteria: […]

Botrytis cinerea = test: Direct protectant activity against broad bean grey mould (BCB); format: in vivo; conditions: direct protectant foliar spray, 600 ppm, 4 days
Procedure: (c) Direct protectant activity against broad bean grey mould (Botrytis cinerea; BCB) The test is a direct protectant foliar spray. The upper surfaces of leaves of broad bean plants with two leaf pairs (cv The Sutton) are sprayed with the test compound at a dosage of 600 ppm using an automated sprayline as described under (a). 24 hours after spraying the leaves are inoculated with an aqueous suspension containing 10^6 conidia/ml. For 4 days after inoculation plants are kept in a high humidity compartment at 22° C. Disease is assessed 4 days after inoculation, based on the percentage of leaf surface area covered by lesions. The extent of disease control in all the above tests is expressed as a rating compared with either an untreated control or a diluent-sprayed-control, according to the criteria: […]

[3] = test system: Erysiphe graminis f.sp. hordei; test: Direct protectant activity against barley powdery mildew (EGP); format: in vivo; conditions: direct protectant foliar spray, 8 days
Procedure: (f) Direct protectant activity against barley powdery mildew (Erysiphe graminis f.sp. hordei; EGP) The test is a direct protectant foliar spray. Leaves of barley seedlings (cv Golden Promise) at the single leaf stage are sprayed with the test compound as described under (a). After drying, the plants are kept for 24 hours in a glasshouse at 18° C. and 40% R.H. Then the plants are inoculated by dusting with mildew conidia and kept at 18° C. and 40% R.H. for 8 days. Assessment is based on the percentage of leaf area covered by sporulation compared with that on leaves of control plants. The extent of disease control in all the above tests is expressed as a rating compared with either an untreated control or a diluent-sprayed-control, according to the criteria: […]

Phytophthora infestans = format: in vivo; conditions: tomato, direct protectant foliar spray
Rhizoctonia solani = test: Activity against Rhizoctonia in-vitro (RSI); format: cell-based; conditions: 10 ppm, 10 days, 20° C., mycelial growth
Procedure: (i) Activity against Rhizoctonia in-vitro (Rhizoctonia solani: RSI) This test measures the in-vitro activity of compounds against R. solani that causes stem and root rots. The test compound in acetone is added into 4 ml aliquots of half strength Potato Dextrose Broth dispensed in 25-compartment petri dishes to give final concentrations of 10 ppm. The fungal inoculum consists of mycelial fragments of R. solani growth in half strength PDB in shaken culture flasks and added to the broth to provide 5×10^4 fragments/ml broth. Petri dishes are incubated at 20° C. for 10 days until the assessment of mycelial growth. The extent of disease control in all the above tests is expressed as a rating compared with either an untreated control or a diluent-sprayed-control, according to the criteria: […]

Plasmopara viticola = test: Antisporulant activity against vine downy mildew (PVA); format: in vivo; conditions: vine leaves, antisporulant foliar spray, 600 ppm, 750 l/ha
Procedure: (a) Antisporulant activity against vine downy mildew (Plasmopara viticola; PVA) The test is a direct antisporulant one using a foliar spray. The lower surfaces of leaves of whole vine plants (cv Cabernet Sauvignon), approximately 8 cm high, are inoculated by spraying with an aqueous suspension containing 5×10^4 zoosporangia/ml. The inoculated plants are kept for 24 hours at 21° C. in a high humidity compartment, then 24 hours at glasshouse ambient temperature and humidity. Infected leaves are sprayed on their lower surfaces with a solution of active material in 1:1 water/acetone containing 0.04% "TWEEN 20" (Trade Mark; a polyoxyethylene sorbitan ester surfactant). Plants are treated using an automated sprayline with an atomising nozzle. The concentration of the compound is 600 ppm, and the spray volume is 750 l/ha. After spraying, the plants are returned to normal glasshouse conditions for 96 hours and are then transferred to the high humidity compartment for 24 hours to induce sporulation. Assessment is based on the percentage of the leaf area covered by sporulation compared with that on control leaves. The extent of disease control in all the above tests is expressed as a rating compared with either an untreated control or a diluent-sprayed-control, according to the criteria: […]

SMILES	disease control rating AS (Alternaria solani)	disease control rating PO (Pyricularia oryzae)	disease control rating LN (Leptosphaeria nodorum)	disease control rating PHI [1]	disease control rating EGT [2]	disease control rating VII (Venturia inaequalis)	disease control rating BCB (Botrytis cinerea)	disease control rating EGP [3]	disease control rating PIP (Phytophthora infestans)	disease control rating RSI (Rhizoctonia solani)	disease control rating PVA (Plasmopara viticola)
CC(C)(C)C1CCC2(CC1)CC(N1CCC(c3ccccc3)CC1)CO2 (stereo not drawn) [Compound 4]	0 (less than 50% disease control)	0 (less than 50% disease control)	1 (about 50-80% disease control)	1 (about 50-80% disease control)	2 (greater than 80% disease control)	1 (about 50-80% disease control)	0 (less than 50% disease control)	2 (greater than 80% disease control)	0 (less than 50% disease control)	0 (less than 50% disease control)	0 (less than 50% disease control)
CCCCCCCNC1COC2(CCC(C(C)(C)C)CC2)C1 (stereo not drawn) [Compound 5]	0 (less than 50% disease control)	0 (less than 50% disease control)	0 (less than 50% disease control)	0 (less than 50% disease control)	2 (greater than 80% disease control)	0 (less than 50% disease control)	1 (about 50-80% disease control)	2 (greater than 80% disease control)	0 (less than 50% disease control)	1 (about 50-80% disease control)	0 (less than 50% disease control)
CC(C)(C)C1CCC2(CC1)CC(N1CCC3CCCCC3C1)CO2 (stereo not drawn) [Compound 6]	0 (less than 50% disease control)	0 (less than 50% disease control)	0 (less than 50% disease control)	0 (less than 50% disease control)	2 (greater than 80% disease control)	1 (about 50-80% disease control)	1 (about 50-80% disease control)	2 (greater than 80% disease control)	0 (less than 50% disease control)	1 (about 50-80% disease control)	0 (less than 50% disease control)
CCCCCCCCNC1COC2(CCC(C(C)(C)C)CC2)C1 (stereo not drawn) [Compound 7]	0 (less than 50% disease control)	0 (less than 50% disease control)	0 (less than 50% disease control)	2 (greater than 80% disease control)	2 (greater than 80% disease control)	2 (greater than 80% disease control)	1 (about 50-80% disease control)	2 (greater than 80% disease control)	0 (less than 50% disease control)	2 (greater than 80% disease control)	0 (less than 50% disease control)
CCCCCNC1COC2(CCC(C(C)(C)C)CC2)C1 (stereo not drawn) [Compound 8]	0 (less than 50% disease control)	0 (less than 50% disease control)	0 (less than 50% disease control)	1 (about 50-80% disease control)	2 (greater than 80% disease control)	1 (about 50-80% disease control)	1 (about 50-80% disease control)	2 (greater than 80% disease control)	0 (less than 50% disease control)	0 (less than 50% disease control)	0 (less than 50% disease control)
CC(C)(C)C1CCC2(CC1)CC(N1CCCC1)CO2 (stereo not drawn) [Compound 9]	0 (less than 50% disease control)	0 (less than 50% disease control)	1 (about 50-80% disease control)	1 (about 50-80% disease control)	2 (greater than 80% disease control)	1 (about 50-80% disease control)	0 (less than 50% disease control)	2 (greater than 80% disease control)	0 (less than 50% disease control)	0 (less than 50% disease control)	0 (less than 50% disease control)
